# Target: T1, human mGluR5 (Homo sapiens, UniProt P41594)
# T1 construct: expressed in transfected cells; host or cells: HEK293 cells stably expressing rat GLAST (EAAT1), stably transfected with pcDNAzeo3.1 carrying synthetic human mGluR5 DNA; zeocin-selected single clones
# Assay: In vitro cell-based FLIPR calcium assay for positive modulation of the activation of mGluR5 by glutamate (PAM EC50)
# Settings: HEK293/GLAST cells expressing recombinant human mGluR5; FLIPR calcium signal; glutamate added at its EC20; read-out: mGluR5 PAM EC50
# Excerpt: The DNA sequences encoding the structural regions for rat mGluR5 [Abe T, Sugihara H, Nawa H, Shigemoto R, Mizuno N, Nakanishi S (1992) “Molecular characterization of a novel metabotropic glutamate receptor mGluR5 coupled to inositol phosphate/Ca^2+ signal transduction” Journal of Biological Chemistry vol. 267, no. 19, pp. 13361-8] and human mGluR5 [Daggett L P, Sacaan A I, Akong M, Rao S P, Hess S D, Liaw C, Urrutia A, Jachec C, Ellis S B, Dreessen J, Knöpfel T, Landwehrmeyer G B, Testa C M, Young A B, Varney M, Johnson E C, Veliçelebi (1995) “Molecular and functional characterization of recombinant human metabotropic glutamate receptor subtype 5” Neuropharmacology vol. 34, no. […] 53, no. 3, pp. 355-369] was obtained from Dr. Michael Robinson of the Children's Hospital of Philadelphia under a Material Transfer Agreement. The pcDNAzeo3.1 vector DNA, carrying either rat mGluR5 or human mGluR5, was used to transfect a sample of the HEK293/GLAST cells, and single clones that express mGluR5 were isolated from the transfected cells using zeocin selection. Expression of mGluR5 was assessed by measurement of the transient fluorescence signal elicited from HEK293/GLAST/mGluR5 cells by glutamate following the loading of the cells with a calcium-sensitive dye using a FLIPR Tetra (Fluorometric Imaging Plate Reader) (Molecular Devices, Sunnyvale, Calif.) [O'Brien J A, Lemaire W, Chen T B, Chang R S, Jacobson M A, Ha S N, Lindsley C W, Schaffhauser H J, Sur C, Pettibone D J, Conn P J, Williams D L Jr. […] 64, no. 3, pp. 731-740; Assay Guidance Manual Version 5.0, 2008, Eli Lilly and Company and NIH Chemical Genomics Center; available online HEK293/GLAST/mGluR5 cells were grown in Dulbecco's Modified Eagle Medium (DMEM) supplemented with 10% dialyzed fetal bovine serum, 20 millimolar (mM) N-2-hydroxyethylpiperazine-N′-2-ethanesulfonic acid (HEPES), penicillin, streptomycin, 1% GlutaMax™ (Invitrogen) and 50 μg/ml zeocin. Cells were grown in the media to 70-80% confluency at 37° C. under 5% CO2, 95% humidity in poly-D-lysine coated coated flasks. Cells for assays were plated into 96-well sterile standard microtiter plates (pre-coated with poly-D-lysine) at a density of 50,000 cells per well in 0.2 milliliters of media. Plated cells were allowed to settle and adhere for 30 minutes at ambient conditions, and then were incubated overnight at 37° C. under 5% CO2, 95% humidity. Several such 96-well plates were typically prepared. On the day of the assays, the components of the FLIPR calcium 4 assay kit (Molecular Devices) were dissolved according to the instructions of the dye kit's manufacturer in assay buffer (Hank's balanced salt solution (HBSS) (Gibco) supplemented with 20 mM HEPES). After removal of the growth media from the first plate, cells were loaded with calcium dye by addition of calcium dye solution (50 microliters per well) and incubation at 25° C. for 45 to 60 minutes. The first plate was placed into the FLIPR Tetra, and a dilution series of glutamate solutions in assay buffer were added to wells on the plate, followed by acquisition of fluorescence data for several minutes. The fluorescence data (maximal signal as a 4-parameter sigmoidal function of log [glutamate]) were processed by non-linear regression methods using the software package GraphPad Prism 5.01 (GraphPad Software Inc.), to yield a glutamate concentration-response curve (CRC). […] These values were, respectively, the concentrations of glutamate that elicit 20%, 50%, and 80% of the maximal FLIPR signal (observed at saturating [glutamate]). The method for measuring the concentration response of a potentiator, or positive allosteric modulator (PAM), is described here as an example. For that purpose, subsequent assays were typically performed using assay buffer containing a glutamate concentration equal to that day's EC20. […] Addition to certain wells of the same buffer containing 0.3% DMSO, but without any test compound, provided a negative control.
# T1 sequence (P41594 21-1212): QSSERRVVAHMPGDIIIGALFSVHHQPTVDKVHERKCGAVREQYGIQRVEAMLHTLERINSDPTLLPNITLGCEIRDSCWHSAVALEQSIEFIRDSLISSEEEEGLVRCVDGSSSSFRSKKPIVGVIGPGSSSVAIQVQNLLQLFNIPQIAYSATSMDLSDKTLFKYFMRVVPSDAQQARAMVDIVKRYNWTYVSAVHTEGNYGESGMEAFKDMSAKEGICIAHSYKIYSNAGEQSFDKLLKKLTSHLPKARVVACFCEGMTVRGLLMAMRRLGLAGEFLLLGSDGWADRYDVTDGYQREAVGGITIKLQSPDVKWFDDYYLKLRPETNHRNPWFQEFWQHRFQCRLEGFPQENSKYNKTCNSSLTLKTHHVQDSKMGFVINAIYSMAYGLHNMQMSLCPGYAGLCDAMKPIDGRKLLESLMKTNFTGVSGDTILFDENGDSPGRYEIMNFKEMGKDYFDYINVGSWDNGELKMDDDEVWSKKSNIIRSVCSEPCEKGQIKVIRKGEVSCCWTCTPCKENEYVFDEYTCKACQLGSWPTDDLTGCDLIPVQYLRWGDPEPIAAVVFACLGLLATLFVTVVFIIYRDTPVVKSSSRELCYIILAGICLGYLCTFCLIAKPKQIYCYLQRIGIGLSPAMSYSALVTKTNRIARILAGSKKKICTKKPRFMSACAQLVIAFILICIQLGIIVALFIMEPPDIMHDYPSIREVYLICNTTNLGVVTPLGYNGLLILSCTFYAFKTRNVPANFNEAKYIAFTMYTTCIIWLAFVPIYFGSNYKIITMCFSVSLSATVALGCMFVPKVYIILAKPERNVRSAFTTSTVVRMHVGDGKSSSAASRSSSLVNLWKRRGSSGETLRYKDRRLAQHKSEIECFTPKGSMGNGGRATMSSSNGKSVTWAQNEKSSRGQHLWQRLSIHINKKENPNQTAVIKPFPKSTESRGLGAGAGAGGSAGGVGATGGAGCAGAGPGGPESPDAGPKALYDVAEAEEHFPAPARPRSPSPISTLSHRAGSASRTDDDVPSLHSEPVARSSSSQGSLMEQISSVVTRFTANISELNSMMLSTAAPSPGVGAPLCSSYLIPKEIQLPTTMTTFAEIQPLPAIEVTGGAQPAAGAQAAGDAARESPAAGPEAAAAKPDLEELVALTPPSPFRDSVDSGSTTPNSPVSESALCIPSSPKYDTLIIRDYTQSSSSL
row,Compound,EC50 [nM]
1,"COCCn1cnc2cc(C#Cc3ccncc3)ccc2c1=O [Example 1.17, 3-(2-methoxyethyl)-7-(pyridin-4-ylethynyl)quinazolin-4(3H)-one]",100 to 300
2,"CCC(C)n1cnc2cc(C#Cc3cccc(F)c3)ccc2c1=O (centres unmarked) [Example 1.19, 3-(sec-butyl)-7-((3-fluorophenyl)ethynyl)quinazolin-4(3H)-one]",< 10
3,"CC(C)Cn1cnc2cc(C#Cc3cccc(F)c3)ccc2c1=O [Example 1.20, 7-((3-fluorophenyl)ethynyl)-3-isobutylquinazolin-4(3H)-one]",30 to 100
4,"CN1CCCC1Cn1cnc2cc(C#Cc3cccc(F)c3)ccc2c1=O (centres unmarked) [Example 1.21, 7-((3-fluorophenyl)ethynyl)-3-((1-methylpyrrolidin-2-yl)methyl)quinazolin-4(3H)-one]",100 to 300
5,"COCCc1nc2cc(C#Cc3cccc(F)c3)ccc2c(=O)n1C [Example 2.1, 7-((3-fluorophenyl)ethynyl)-2-(2-methoxyethyl)-3-methylquinazolin-4(3H)-one]",< 10
6,"Cn1c(C2CCOC2)nc2cc(C#Cc3cccc(F)c3)ccc2c1=O (centres unmarked) [Example 2.2, 7-((3-fluorophenyl)ethynyl)-3-methyl-2-(tetrahydrofuran-3-yl)quinazolin-4(3H)-one]",300 to 1000
7,"Cn1c(C2CCCO2)nc2cc(C#Cc3cccc(F)c3)ccc2c1=O (centres unmarked) [Example 2.3, 7-((3-fluorophenyl)ethynyl)-3-methyl-2-(tetrahydrofuran-2-yl)quinazolin-4(3H)-one]",300 to 1000
8,"CN1CCCC1c1nc2cc(C#Cc3cccc(F)c3)ccc2c(=O)n1C (centres unmarked) [Example 2.4, 7-((3-fluorophenyl)ethynyl)-3-methyl-2-(1-methylpyrrolidin-2-yl)quinazolin-4(3H)-one]",100 to 300
9,"Cn1c(CN2CCCC2)nc2cc(C#Cc3cccc(F)c3)ccc2c1=O [Example 2.6, 7-((3-fluorophenyl)ethynyl)-3-methyl-2-(pyrrolidin-1-ylmethyl)quinazolin-4(3H)-one]",100 to 300
10,"CN(C)Cc1nc2cc(C#Cc3cccc(F)c3)ccc2c(=O)n1C [Example 2.7, 2-((dimethylamino)methyl)-7-((3-fluorophenyl)ethynyl)-3-methylquinazolin-4(3H)-one]",30 to 100
11,"CN1CCOCC1c1nc2cc(C#Cc3cccc(F)c3)ccc2c(=O)n1C (centres unmarked) [Example 2.9, 7-((3-fluorophenyl)ethynyl)-3-methyl-2-(4-methylmorpholin-3-yl)quinazolin-4(3H)-one]",< 10
12,"COC(C)c1nc2cc(C#Cc3cccc(F)c3)ccc2c(=O)n1C (centres unmarked) [Example 2.11, 7-((3-fluorophenyl)ethynyl)-2-(1-methoxyethyl)-3-methylquinazolin-4(3H)-one]",< 10
13,"CC(C)Cc1nc2cc(C#Cc3cccc(F)c3)ccc2c(=O)n1C [Example 2.12, 7-((3-fluorophenyl)ethynyl)-2-isobutyl-3-methylquinazolin-4(3H)-one]",30 to 100
14,"COCCc1nc2cc(C#Cc3cccc(F)c3)ccc2c(=O)[nH]1 [Example 2.13, 7-((3-fluorophenyl)ethynyl)-2-(2-methoxyethyl)quinazolin-4(3H)-one]",100 to 300
15,"CCC(C)c1nc2cc(C#Cc3cccc(F)c3)ccc2c(=O)n1C (centres unmarked) [Example 2.14, 2-(sec-butyl)-7-((3-fluorophenyl)ethynyl)-3-methylquinazolin-4(3H)-one]",300 to 1000
16,"COCc1nc2cc(C#Cc3cccc(F)c3)ccc2c(=O)n1C [Example 2.18, 7-((3-fluorophenyl)ethynyl)-2-(methoxymethyl)-3-methylquinazolin-4(3H)-one]",10 to 30

row,Compound,EC50 [nM]
1,"CC(c1nc2cc(C#Cc3ccccn3)ccc2c(=O)n1C)N(C)C (centres unmarked) [Example 2.21, 2-(1-(dimethylamino)ethyl)-3-methyl-7-(pyridin-2-ylethynyl)quinazolin-4(3H)-one]",100 to 300
2,"CC(C)N(C)C(C)c1nc2cc(C#Cc3ccccn3)ccc2c(=O)n1C (centres unmarked) [Example 2.22, 2-(1-(isopropyl(methyl)amino)ethyl)-3-methyl-7-(pyridin-2-ylethynyl)quinazolin-4(3H)-one]",300 to 1000
3,"CC(c1nc2cc(C#Cc3ccccn3)ccc2c(=O)n1C)N(C)C1CCC1 (centres unmarked) [Example 2.23, 2-(1-(cyclobutyl(methyl)amino)ethyl)-3-methyl-7-(pyridin-2-ylethynyl)quinazolin-4(3H)-one]",300 to 1000
4,"O=c1c2ccc(C#Cc3cccc(F)c3)cc2nc2n1CCC2 [Example 3.1, 6-((3-fluorophenyl)ethynyl)-2,3-dihydropyrrolo[2,1-b]quinazolin-9(1H)-one]",< 10
5,"CN(C)CC1CCc2nc3cc(C#Cc4cccc(F)c4)ccc3c(=O)n21 (centres unmarked) [Example 3.4, 1-((dimethylamino)methyl)-6-((3-fluorophenyl)ethynyl)-2,3-dihydropyrrolo[2,1-b]quinazolin-9(1H)-one]",100 to 300
6,"O=c1c2ccc(C#Cc3cccc(F)c3)cc2nc2n1C(CO)CC2 (centres unmarked) [Example 3.5, 6-((3-fluorophenyl)ethynyl)-1-(hydroxymethyl)-2,3-dihydropyrrolo[2,1-b]quinazolin-9(1H)-one]",30 to 100
7,"COCC1CCc2nc3cc(C#Cc4cccc(F)c4)ccc3c(=O)n21 (centres unmarked) [Example 3.6, 6-((3-fluorophenyl)ethynyl)-1-(methoxymethyl)-2,3-dihydropyrrolo[2,1-b]quinazolin-9(1H)-one]",< 10
8,"COCC1CCc2nc3cc(C#Cc4ccccn4)ccc3c(=O)n21 (centres unmarked) [Example 3.7, 1-(methoxymethyl)-6-(pyridin-2-ylethynyl)-2,3-dihydropyrrolo[2,1-b]quinazolin-9(1H)-one]",30 to 100
9,CC1Cc2nc3cc(C#Cc4cccc(F)c4)ccc3c(=O)n2C1 (centres unmarked) [Example 3.8],< 10
10,"CC(C)CC1Cc2nc3cc(C#Cc4cccc(F)c4)ccc3c(=O)n2C1 (centres unmarked) [Example 3.9, 6-((3-fluorophenyl)ethynyl)-2-isobutyl-2,3-dihydropyrrolo[2,1-b]quinazolin-9(1H)-one]",10 to 30
11,O=c1c2ccc(C#Cc3cccc(F)c3)cc2nc2n1CC(Cc1ccccc1)C2 (centres unmarked) [Example 3.10],< 10
12,"CC1Cc2nc3cc(C#Cc4ccccn4)ccc3c(=O)n2C1 (centres unmarked) [Example 3.11, 2-methyl-6-(pyridin-2-ylethynyl)-2,3-dihydropyrrolo[2,1-b]quinazolin-9(1H)-one]",10 to 30
13,"CC1CCc2nc3cc(C#Cc4ccccn4)ccc3c(=O)n21 (centres unmarked) [Example 3.14, 1-methyl-6-(pyridin-2-ylethynyl)-2,3-dihydropyrrolo[2,1-b]quinazolin-9(1H)-one]",100 to 300
14,"CN1CCCCC12Cc1nc3cc(C#Cc4cccc(F)c4)ccc3c(=O)n1C2 (centres unmarked) [Example 3.16, 6′-((3-fluorophenyl)ethynyl)-1-methyl-1′H-spiro[piperidine-2,2′-pyrrolo[2,1-b]quinazolin]-9′(3′ H)-one]",100 to 300
15,"O=c1c2ccc(C#Cc3ccccn3)cc2nc2n1CC(CO)C2 (centres unmarked) [Example 3.18, 2-(hydroxymethyl)-6-(pyridin-2-ylethynyl)-2,3-dihydropyrrolo[2,1-b]quinazolin-9(1H)-one]",100 to 300
16,"COCC1Cc2nc3cc(C#Cc4ccccn4)ccc3c(=O)n2C1 (centres unmarked) [Example 3.19, 2-(methoxymethyl)-6-(pyridin-2-ylethynyl)-2,3-dihydropyrrolo[2,1-b]quinazolin-9(1H)-one]",30 to 100

# Source: US10077243B2, “Compounds for treating disorders mediated by metabotropic glutamate receptor 5, and methods of use thereof” (Sunovion Pharmaceuticals Inc., priority 2009, dated 2018)
